One experiment has as its system Escherichia coli. The experiment in a line: Antibacterial activity against Escherichia coli. It is filed as functional.
Experiment [1] in a line: Uncoupling activity of oxidative phosphorylation in rat liver mitochondria. It is filed as functional.
The species entered for experiment [2] is Rattus norvegicus. The experiment in a line: Hypoglycemic activity in rat assessed as change in blood glucose level after 4 hrs. It is filed as functional. Set-up: concentration or dose not given beside the values.
In experiment [3] the test system is Rattus norvegicus. The experiment can be described thus: Antiinflammatory activity in rat pleurisy model assessed as 10X ratio of mean pleural exudate volumes at 1 mmol/kg, po relative to 1 mmol/kg aspirin. It is filed as functional.
For a further experiment, the species on record is Oryctolagus cuniculus. The experiment in a line: Reversible inhibition of guanine deaminase in rabbit liver at pH 7.4.
Another experiment relates to Plasma. The experiment in a line: Fibrinolytic activity in human plasma assessed as dissolution of standard clot measured with in 24 hrs. It is filed as functional.
A short description of experiment [4]: Inhibition of carbonic anhydrase (unknown origin). As to conditions: Homo sapiens.
Experiment [5] is described as follows: Inhibition of alcohol dehydrogenase (unknown origin) assessed as dissociation constant for the complex of enzyme and DPNH. In kind it is protein assay. As to conditions: Homo sapiens.

These results are taken from ChEMBL document CHEMBL3244130, “A manual method for applying the Hansch approach to drug design” (J Med Chem, 1977).

In the case of `Nc1ccc(S(=O)(=O)NC(=O)c2cccc(C(F)(F)F)c2)cc1`, the “log(1/MIC)” value with Escherichia coli worked out at 4.65. In turn, `CC(C)c1ccc(C2C(=O)c3ccccc3C2=O)cc1` returned a log(1/C50) in experiment [1] of 4.87. `Cc1ccc(C(=O)C=P(c2ccccc2)(c2ccccc2)c2ccccc2)cc1`: the Activity in the experiment listed under Rattus norvegicus [2] is -2%. As for `COc1ccc(-c2nnn(CCC(=O)O)n2)cc1`, the Activity_index with Rattus norvegicus [3] is reported as 4.9. In the experiment filed under Oryctolagus cuniculus, `CCOc1ccc(-n2cnc3c(O)nc(N)nc32)cc1` registered a log(1/C) of 7.01. For the molecule `O=C(O)CCn1nnc(-c2ccc(Cl)cc2)n1`, the Activity_index with Rattus norvegicus [3] stood at 5.9. Turning to `O=C(O)CCn1nnc(-c2cccc(Br)c2)n1`, the Activity_index with Rattus norvegicus [3] came to 11.2. Regarding `COc1ccc(C(=O)NS(=O)(=O)c2ccc(N)cc2)cc1`, in the experiment on Escherichia coli, the “log(1/MIC)” value turned out to be 5.4. For `Cc1cccc(C(=O)C=P(c2ccccc2)(c2ccccc2)c2ccccc2)c1`, in the experiment listed under Rattus norvegicus [2], the Activity is reported as -30%. Consider `Nc1ccc(S(=O)(=O)NC(=O)c2ccccc2)cc1` [SULFABENZAMIDE], for which the “log(1/MIC)” value in the experiment on Escherichia coli was 5.25. In the case of `O=C(O)[C@H]1C[C@@H]1C#Cc1ccccc1`, the “log(1/C)” value with Plasma is on record as 1.7. With `NS(=O)(=O)c1ccc(Cl)cc1`, the log1/Ki in experiment [4] was determined as 0.72. The molecule `Nc1nc(O)c2ncn(-c3ccc(OCCCc4ccccc4)cc3)c2n1` gave a log(1/C) in the experiment filed under Oryctolagus cuniculus of 7.25. Consider `O=C(C=P(c1ccccc1)(c1ccccc1)c1ccccc1)c1ccccc1`, for which the Activity in the experiment filed under Rattus norvegicus [2] is on record as -24%. In the case of `Nc1ccc(S(=O)(=O)NC(=O)c2ccc([N+](=O)[O-])cc2)cc1`, in the experiment on Escherichia coli, the “log(1/MIC)” value was 4.5. With `CCCc1ccc(C(=O)NS(=O)(=O)c2ccc(N)cc2)cc1`, in the experiment with Escherichia coli, the “log(1/MIC)” value worked out at 5.18. Turning to `COc1ccc(C2C(=O)c3ccccc3C2=O)cc1`, the log(1/C50) in experiment [1] amounted to 3.75. Regarding `NS(=O)(=O)c1ccc([N+](=O)[O-])c(C(F)(F)F)c1`, the log1/Ki in experiment [4] came out at 1.85. For the molecule `NC(=O)c1ccc(Cl)cc1`, the log K in experiment [5] was -1.93. `Cc1ccc(C(N)=O)cc1`: the log K in experiment [5] was -1.78.

Regarding `Cc1ccc(S(N)(=O)=O)cc1`, the log1/Ki in experiment [4] worked out at 0.42.

On to `O=C(O)CCn1nnc(-c2cc(Cl)cc(Cl)c2)n1`, for which, in the experiment on Rattus norvegicus [3], the Activity_index stood at 11.2. In the case of `CC(C)(C)c1ccc(C2C(=O)c3ccccc3C2=O)cc1`, the log(1/C50) in experiment [1] is 5.03. Regarding `Cc1ccc(-c2nnn(CCC(=O)O)n2)cc1`, the Activity_index in the experiment with Rattus norvegicus [3] turned out to be 3.1.

As to `COc1ccc(C#C[C@H]2C[C@@H]2C(=O)O)cc1`, the “log(1/C)” value in the experiment on Plasma is reported as 1.7.

For the molecule `Nc1cccc(-c2nnn(CCC(=O)O)n2)c1`, the Activity_index in the experiment on Rattus norvegicus [3] was determined as 0.3. For `COc1cccc(C(=O)C=P(c2ccccc2)(c2ccccc2)c2ccccc2)c1`, the Activity in the experiment filed under Rattus norvegicus [2] is -42%. With `COc1ccc(C(=O)NS(=O)(=O)c2ccc(N)cc2)cc1C`, the “log(1/MIC)” value in the experiment with Escherichia coli was 5.25. `NC(=O)c1ccccc1`: the log K in experiment [5] is -2.72. Take `COc1ccc(S(N)(=O)=O)cc1`: the log1/Ki in experiment [4] turned out to be 0.35. Take `Nc1ccc(S(=O)(=O)NC(=O)c2ccc(Cl)cc2)cc1`: the “log(1/MIC)” value in the experiment with Escherichia coli stood at 5.1. In the case of `N#Cc1ccc(C(=O)NS(=O)(=O)c2ccc(N)cc2)cc1`, the “log(1/MIC)” value in the experiment on Escherichia coli stood at 4.05. As to `O=C(O)CCn1nnc(-c2ccc(Cl)c(Cl)c2)n1`, the Activity_index with Rattus norvegicus [3] came out at 6.2.

`O=C1c2ccccc2C(=O)C1c1ccc(Cl)cc1` showed a log(1/C50) in experiment [1] of 4.2. As for `COc1ccc(C(=O)C=P(c2ccccc2)(c2ccccc2)c2ccccc2)cc1`, the Activity in the experiment filed under Rattus norvegicus [2] is -4%. For `O=C(C=P(c1ccccc1)(c1ccccc1)c1ccccc1)c1cccc(C(F)(F)F)c1`, the Activity in the experiment filed under Rattus norvegicus [2] is -22%. `CC(C)c1ccc(C(=O)NS(=O)(=O)c2ccc(N)cc2)cc1`: the “log(1/MIC)” value in the experiment on Escherichia coli is 5.4. `O=C(C=P(c1ccccc1)(c1ccccc1)c1ccccc1)c1cccc(Cl)c1`: the Activity in the experiment listed under Rattus norvegicus [2] is -42%. As for `COc1ccc(C(N)=O)cc1`, the log K in experiment [5] is -2.2.

On to `Cc1cccc(C(=O)NS(=O)(=O)c2ccc(N)cc2)c1`, for which the “log(1/MIC)” value in the experiment with Escherichia coli is recorded as 5.4. In the case of `Cc1ccc(C2C(=O)c3ccccc3C2=O)cc1`, in experiment [1], the log(1/C50) was 4.1.

As for `O=C(C=P(c1ccccc1)(c1ccccc1)c1ccccc1)c1ccc(Cl)c(Cl)c1`, the Activity in the experiment filed under Rattus norvegicus [2] amounted to 2%. In the case of `O=C(O)CCn1nnc(-c2ccccc2)n1`, in the experiment with Rattus norvegicus [3], the Activity_index worked out at 8.2. Consider `Cc1ccc(C(=O)NS(=O)(=O)c2ccc(N)cc2)cc1`, for which the “log(1/MIC)” value with Escherichia coli was 5.4.

In experiment [4], `NS(=O)(=O)c1ccccc1` showed a log1/Ki of 0.22.

Turning to `Cc1cccc(-c2nnn(CCC(=O)O)n2)c1`, the Activity_index with Rattus norvegicus [3] is 7.9. Consider `O=C(O)CCn1nnc(-c2cccc(Cl)c2)n1`, for which, in the experiment on Rattus norvegicus [3], the Activity_index was 11.2. For `O=C1c2ccccc2C(=O)C1c1ccccc1`, the log(1/C50) in experiment [1] is 3.74. As for `O=C(C=P(c1ccccc1)(c1ccccc1)c1ccccc1)c1ccc(Cl)cc1`, in the experiment listed under Rattus norvegicus [2], the Activity is -21%. For `CCc1ccc(C(=O)NS(=O)(=O)c2ccc(N)cc2)cc1`, the “log(1/MIC)” value in the experiment on Escherichia coli was found to be 5.62. In the case of `O=C(O)[C@H]1C[C@@H]1C#Cc1ccc(Cl)cc1`, the “log(1/C)” value in the experiment on Plasma was 1.92. `CC(C)c1ccc(C(N)=O)cc1`: the log K in experiment [5] is -1.7. `NS(=O)(=O)c1ccc(Cl)c(Cl)c1`: in experiment [4], the log1/Ki turned out to be 1.4. On to `Cc1ccc(C#C[C@H]2C[C@@H]2C(=O)O)cc1`, for which, in the experiment with Plasma, the “log(1/C)” value came out at 1.82.

In the case of `O=C(O)CCn1nnc(-c2cccc(C(F)(F)F)c2)n1`, the Activity_index in the experiment with Rattus norvegicus [3] was determined as 5.7.
